Source: patent US6355676B1, “Fumaric acid micro tablets” (Fumapharm AG, priority 1998, dated 2002)
Structures can show the parent of a compound that is named as a salt.

Columns and labels:
isolated monocytes = test: Endotoxin-stimulated TNF-α secretion in isolated monocytes; assay type: cell-based, human; details: initial exposure
Source text: (§1) With multiple re-exposure, the endotoxin-induced increase in TNF-α secretion is reduced, i.e. adaptation takes place.

[1] = tested on: human mononuclear cells of the peripheral blood (PBMC); test: Endotoxin-stimulated TNF-α secretion in PBMC; assay type: cell-based
Source text: as §1

COC(=O)/C=C/C(=O)O [methyl hydrogen fumarate]
endotoxin-stimulating TNF-α secretion (isolated monocytes): initially increases
endotoxin-stimulating TNF-α secretion ([1]; initial exposure, PBMC): initially increases
endotoxin-induced increase in TNF-α secretion ([1]; multiple re-exposure, cell type not restated): reduced
